Results from ChEMBL document CHEMBL3627622, “Exploration of labeling by near infrared dyes of the polyproline linker for bivalent-type CXCR4 ligands” (Bioorg Med Chem, 2015).

Molecular target: C-X-C chemokine receptor type 4 (Homo sapiens, UniProt P61073)
Assay: Displacement of fluorescently-labeled-TZ14011 from CXCR4 in human Jurkat cells incubated for 30 mins by fluorescence analysis
Format: cell-based

C-X-C chemokine receptor type 4, sequence (P61073 whole entry): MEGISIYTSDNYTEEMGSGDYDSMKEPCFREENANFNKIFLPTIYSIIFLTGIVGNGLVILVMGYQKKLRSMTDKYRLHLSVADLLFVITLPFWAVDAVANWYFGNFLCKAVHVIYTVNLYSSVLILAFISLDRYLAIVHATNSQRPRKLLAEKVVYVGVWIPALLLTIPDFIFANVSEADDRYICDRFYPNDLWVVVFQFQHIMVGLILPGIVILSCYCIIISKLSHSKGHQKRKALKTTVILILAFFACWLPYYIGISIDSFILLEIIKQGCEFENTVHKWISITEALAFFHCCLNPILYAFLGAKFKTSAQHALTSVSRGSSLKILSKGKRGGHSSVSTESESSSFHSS

| IC50 [nM] | SMILES |
| --- | --- |
| 44 | CC(=O)N[C@@H](CCCCNC(=O)CSC[C@H]1NC(=O)[C@H](Cc2ccc3ccccc3c2)NC(=O)[C@H](CCCNC(=N)N)NC(=O)[C@H](CCCNC(=N)N)NC(=O)[C@@H](Cc2ccc(O)cc2)NC1=O)C(=O)N1CCC[C@H]1C(=O)N1CCC[C@H]1C(=O)N1CCC[C@H]1C(=O)N1CCC[C@H]1C(=O)N1CCC[C@H]1C(=O)N1CCC[C@H]1C(=O)N1CCC[C@H]1C(=O)N1CCC[C@H]1C(=O)N1CCC[C@H]1C(=O)N1CCC[C@H]1C(=O)N1CCC[C@H]1C(=O)N1CCC[C@H]1C(=O)N1CCC[C@H]1C(=O)N1CCC[C@H]1C(=O)N1CCC[C@H]1C(=O)N1CCC[C@H]1C(=O)N1CCC[C@H]1C(=O)N1CCC[C@H]1C(=O)N[C@@H](CCCCNC(=O)CS[C@H]1NC(=O)[C@H](Cc2ccc3ccccc3c2)NC(=O)[C@H](CCCNC(=N)N)NC(=O)[C@H](CCCNC(=N)N)NC(=O)[C@@H](Cc2ccc(O)cc2)NC1=O)C(N)=O |
| 86 | [N-]=[N+]=NCCCCCC(=O)NCCCC(=O)N[C@@H](CCCCNC(=O)CSC[C@H]1NC(=O)[C@H](Cc2ccc3ccccc3c2)NC(=O)[C@H](CCCNC(=N)N)NC(=O)[C@H](CCCNC(=N)N)NC(=O)[C@@H](Cc2ccc(O)cc2)NC1=O)C(=O)N1CCC[C@H]1C(=O)N1CCC[C@H]1C(=O)N1CCC[C@H]1C(=O)N1CCC[C@H]1C(=O)N1CCC[C@H]1C(=O)N1CCC[C@H]1C(=O)N1CCC[C@H]1C(=O)N1CCC[C@H]1C(=O)N1CCC[C@H]1C(=O)N1CCC[C@H]1C(=O)N1CCC[C@H]1C(=O)N1CCC[C@H]1C(=O)N1CCC[C@H]1C(=O)N1CCC[C@H]1C(=O)N1CCC[C@H]1C(=O)N1CCC[C@H]1C(=O)N1CCC[C@H]1C(=O)N1CCC[C@H]1C(=O)N[C@@H](CCCCNC(=O)CS[C@@H]1NC(=O)[C@H](Cc2ccc3ccccc3c2)NC(=O)[C@H](CCCNC(=N)N)NC(=O)[C@H](CCCNC(=N)N)NC(=O)[C@@H](Cc2ccc(O)cc2)NC1=O)C(N)=O |
